Experimental data published in PMC2931804 (Clinical cancer research : an official journal of the …, 2010).
Read-outs that look alike come from different tables or passages of the source.

[1] = DL3 800 mg twice daily × 3 + sLV5FU2, Any cycle, n = 3
[2] = DL3 1,000 mg once daily × 3 + sLV5FU2, 1st cycle, n = 3
[3] = DL3 1,000 mg once daily × 3 + sLV5FU2, Any cycle, n = 3
[4] = DL4 1,200 mg once daily × 3 + sLV5FU2, 1st cycle, n = 3
[5] = DL4 1,200 mg once daily × 3 + sLV5FU2, Any cycle, n = 3
[6] = DL5 1,400 mg once daily × 3 + sLV5FU2, 1st cycle, n = 3
[7] = DL5 1,400 mg once daily × 3 + sLV5FU2, Any cycle, n = 3
[8] = DL6 1,700 mg once daily × 3 + sLV5FU2, 1st cycle, n = 6
[9] = DL6 1,700 mg once daily × 3 + sLV5FU2, Any cycle, n = 6
[10] = DL7 2,000 mg once daily × 3 + sLV5FU2, 1st cycle, n = 3
[11] = DL7 2,000 mg once daily × 3 + sLV5FU2, Any cycle, n = 3

In the case of `O=C(CCCCCCC(=O)Nc1ccccc1)NO` [vorinostat, suberoylanilide hydroxamic acid], the “Nausea, treatment-related, patients (G2/G3/G4)” value (from here on “Nausea, treatment-related”) [1] is reported as 0/0/0, the “Neutropenia, treatment-related, patients (G2/G3/G4)” value (from here on “Neutropenia, treatment-related”) [1] is reported as 2/0/0 and the “Thrombocytopenia, treatment-related, patients (G2/G3/G4)” value (“Thrombocytopenia, treatment-related” for short) [1] is reported as 2/1/0. For the same compound, the “VTE, treatment-related, patients (G2/G3/G4)” value [1] was 0/0/1, the “Vomiting, treatment-related, patients (G2/G3/G4)” value (from here on “Vomiting, treatment-related”) [1] was 0/0/0 and the “Anemia, treatment-related, patients (G2/G3/G4)” value (from here on “Anemia, treatment-related”) [2] was 1/0/0. The “Anorexia, treatment-related, patients (G2/G3/G4)” value (from here on “Anorexia, treatment-related”) [2] was 0/0/0, the “DVT/PE, treatment-related, patients (G2/G3/G4)” value (from here on “DVT/PE, treatment-related”) [2] was 0/0/0 and the “Dehydration, treatment-related, patients (G2/G3/G4)” value (from here on “Dehydration, treatment-related”) [2] was 0/0/0. The “Diarrhea, treatment-related, patients (G2/G3/G4)” value (shortened to “Diarrhea, treatment-related”) [2] was 0/0/0, the “Fatigue, treatment-related, patients (G2/G3/G4)” value (“Fatigue, treatment-related” for short) [2] was 1/0/0 and the “GI bleed, treatment-related, patients (G2/G3/G4)” value (“GI bleed, treatment-related” for short) [2] was 0/0/0. The “Hand and Foot, treatment-related, patients (G2/G3/G4)” value (“Hand and Foot, treatment-related” below) [2] was 0/0/0, the “Infection, treatment-related, patients (G2/G3/G4)” value (from here on “Infection, treatment-related”) [2] was 0/0/0 and the “Mucositis, treatment-related, patients (G2/G3/G4)” value (“Mucositis, treatment-related” for short) [2] was 0/0/0. For the same compound, the “Nausea, treatment-related” value [2] was 0/0/0, the “Neutropenia, treatment-related” value [2] was 0/0/0 and the “Thrombocytopenia, treatment-related” value [2] was 0/0/0. The “Vomiting, treatment-related” value [2] was 0/0/0, the “Weight Loss, treatment-related, patients (G2/G3/G4)” value (“Weight Loss, treatment-related” for short) [2] was 0/0/0 and the “Anemia, treatment-related” value [3] was 1/0/0. For the same compound, the “Anorexia, treatment-related” value [3] was 0/0/0, the “DVT/PE, treatment-related” value [3] was 0/0/0 and the “Dehydration, treatment-related” value [3] was 0/0/0. The “Diarrhea, treatment-related” value [3] was 0/0/0, the “Fatigue, treatment-related” value [3] was 2/0/0 and the “GI bleed, treatment-related” value [3] was 0/0/0. The “Hand and Foot, treatment-related” value [3] was 0/0/0, the “Infection, treatment-related” value [3] was 0/0/0 and the “Mucositis, treatment-related” value [3] was 1/0/0. The “Nausea, treatment-related” value [3] was 0/0/0, the “Neutropenia, treatment-related” value [3] was 0/0/0 and the “Thrombocytopenia, treatment-related” value [3] was 0/0/0. For the same compound, the “Vomiting, treatment-related” value [3] was 0/0/0, the “Weight Loss, treatment-related” value [3] was 0/0/0 and the “Anemia, treatment-related” value [4] was 0/0/0. For the same compound, the “Anorexia, treatment-related” value [4] was 0/0/0, the “DVT/PE, treatment-related” value [4] was 0/0/0 and the “Dehydration, treatment-related” value [4] was 0/0/0. The “Diarrhea, treatment-related” value [4] was 0/0/0, the “Fatigue, treatment-related” value [4] was 2/0/0 and the “GI bleed, treatment-related” value [4] was 0/0/0. The “Hand and Foot, treatment-related” value [4] was 0/0/0, the “Infection, treatment-related” value [4] was 0/0/0 and the “Mucositis, treatment-related” value [4] was 0/0/0. For the same compound, the “Nausea, treatment-related” value [4] was 0/0/0, the “Neutropenia, treatment-related” value [4] was 0/0/0 and the “Thrombocytopenia, treatment-related” value [4] was 0/0/0. The “Vomiting, treatment-related” value [4] was 1/0/0, the “Weight Loss, treatment-related” value [4] was 0/0/0 and the “Anemia, treatment-related” value [5] was 0/0/0. The “Anorexia, treatment-related” value [5] was 1/0/0, the “DVT/PE, treatment-related” value [5] was 0/1/0 and the “Dehydration, treatment-related” value [5] was 0/0/0. For the same compound, the “Diarrhea, treatment-related” value [5] was 0/1/0, the “Fatigue, treatment-related” value [5] was 2/0/0 and the “GI bleed, treatment-related” value [5] was 0/0/0. For the same compound, the “Hand and Foot, treatment-related” value [5] was 0/0/0, the “Infection, treatment-related” value [5] was 0/0/0 and the “Mucositis, treatment-related” value [5] was 0/0/0. The “Nausea, treatment-related” value [5] was 1/0/0, the “Neutropenia, treatment-related” value [5] was 0/0/0 and the “Thrombocytopenia, treatment-related” value [5] was 0/0/0. The “Vomiting, treatment-related” value [5] was 2/0/0, the “Weight Loss, treatment-related” value [5] was 1/0/0 and the “Anemia, treatment-related” value [6] was 0/0/0. The “Anorexia, treatment-related” value [6] was 0/0/0, the “DVT/PE, treatment-related” value [6] was 0/0/0 and the “Dehydration, treatment-related” value [6] was 0/0/0. For the same compound, the “Diarrhea, treatment-related” value [6] was 0/0/0, the “Fatigue, treatment-related” value [6] was 0/0/0 and the “GI bleed, treatment-related” value [6] was 0/0/0. The “Hand and Foot, treatment-related” value [6] was 0/0/0, the “Infection, treatment-related” value [6] was 0/0/0 and the “Mucositis, treatment-related” value [6] was 0/0/0. For the same compound, the “Nausea, treatment-related” value [6] was 0/0/0, the “Neutropenia, treatment-related” value [6] was 1/0/0 and the “Thrombocytopenia, treatment-related” value [6] was 0/0/0. The “Vomiting, treatment-related” value [6] was 0/0/0, the “Weight Loss, treatment-related” value [6] was 0/0/0 and the “Anemia, treatment-related” value [7] was 1/0/0. For the same compound, the “Anorexia, treatment-related” value [7] was 1/0/0, the “DVT/PE, treatment-related” value [7] was 0/0/0 and the “Dehydration, treatment-related” value [7] was 0/0/0. For the same compound, the “Diarrhea, treatment-related” value [7] was 2/0/0, the “Fatigue, treatment-related” value [7] was 2/0/0 and the “GI bleed, treatment-related” value [7] was 0/0/0. For the same compound, the “Hand and Foot, treatment-related” value [7] was 0/0/0, the “Infection, treatment-related” value [7] was 0/0/0 and the “Mucositis, treatment-related” value [7] was 0/0/0. For the same compound, the “Nausea, treatment-related” value [7] was 0/0/0, the “Neutropenia, treatment-related” value [7] was 0/1/0 and the “Thrombocytopenia, treatment-related” value [7] was 0/0/0. The “Vomiting, treatment-related” value [7] was 1/0/0, the “Weight Loss, treatment-related” value [7] was 1/0/0 and the “Anemia, treatment-related” value [8] was 0/0/0. For the same compound, the “Anorexia, treatment-related” value [8] was 2/0/0, the “DVT/PE, treatment-related” value [8] was 0/0/0 and the “Dehydration, treatment-related” value [8] was 0/0/0. The “Diarrhea, treatment-related” value [8] was 0/1/0, the “Fatigue, treatment-related” value [8] was 3/0/0 and the “GI bleed, treatment-related” value [8] was 0/0/0. The “Hand and Foot, treatment-related” value [8] was 0/0/0, the “Infection, treatment-related” value [8] was 0/0/0 and the “Mucositis, treatment-related” value [8] was 0/0/0. The “Nausea, treatment-related” value [8] was 2/0/0, the “Neutropenia, treatment-related” value [8] was 0/0/0 and the “Thrombocytopenia, treatment-related” value [8] was 0/0/0. The “Vomiting, treatment-related” value [8] was 0/0/0, the “Weight Loss, treatment-related” value [8] was 0/0/0 and the “Anemia, treatment-related” value [9] was 2/1/0. The “DVT/PE, treatment-related” value [9] was 0/1/0, the “Dehydration, treatment-related” value [9] was 2/1/0 and the “Diarrhea, treatment-related” value [9] was 3/2/0. For the same compound, the “Fatigue, treatment-related” value [9] was 6/0/0, the “GI bleed, treatment-related” value [9] was 0/0/0 and the “Hand and Foot, treatment-related” value [9] was 0/0/0. The “Infection, treatment-related” value [9] was 0/2/0, the “Mucositis, treatment-related” value [9] was 1/1/0 and the “Neutropenia, treatment-related” value [9] was 1/0/0. For the same compound, the “Thrombocytopenia, treatment-related” value [9] was 1/0/0, the “Vomiting, treatment-related” value [9] was 3/3/0 and the “Weight Loss, treatment-related” value [9] was 0/0/0. For the same compound, the “Patients with DLT” value (DL6 1,700 mg once daily × 3 + sLV5FU2, six patients) was “None”, the “Anemia, treatment-related” value [10] was 0/2/0 and the “Anorexia, treatment-related” value [10] was 1/0/0. The “DVT/PE, treatment-related” value [10] was 0/0/0, the “Dehydration, treatment-related” value [10] was 1/0/0 and the “Diarrhea, treatment-related” value [10] was 0/0/0. The “GI bleed, treatment-related” value [10] was 0/1/0, the “Infection, treatment-related” value [10] was 0/0/0 and the “Mucositis, treatment-related” value [10] was 0/0/0. For the same compound, the “Nausea, treatment-related” value [10] was 1/0/0, the “Neutropenia, treatment-related” value [10] was 1/0/0 and the “Thrombocytopenia, treatment-related” value [10] was 0/1/0. The “Vomiting, treatment-related” value [10] was 0/0/0, the “Weight Loss, treatment-related” value [10] was 0/0/0 and the “Anemia, treatment-related” value [11] was 0/2/0. For the same compound, the “Anorexia, treatment-related” value [11] was 2/0/0, the “DVT/PE, treatment-related” value [11] was 0/0/0 and the “Dehydration, treatment-related” value [11] was 1/1/0. For the same compound, the “Diarrhea, treatment-related” value [11] was 0/0/0, the “Fatigue, treatment-related” value [11] was 0/2/0 and the “GI bleed, treatment-related” value [11] was 0/1/0. For the same compound, the “Hand and Foot, treatment-related” value [11] was 0/1/0, the “Infection, treatment-related” value [11] was 0/0/0 and the “Mucositis, treatment-related” value [11] was 0/0/0. For the same compound, the “Nausea, treatment-related” value [11] was 2/0/0, the “Neutropenia, treatment-related” value [11] was 1/0/0 and the “Thrombocytopenia, treatment-related” value [11] was 0/1/0. The “Vomiting, treatment-related” value [11] was 0/0/0, the “Weight Loss, treatment-related” value [11] was 0/0/0 and the DLT (once-daily dose levels 1 through 6, three patients each) was “without any DLT”. The “MTD of vorinostat, once-daily schedule” value (orally once daily × 3 days every 2 weeks, in combination with sLV5FU2) was 1,700 mg and the “MTD of vorinostat, twice-daily schedule” value (orally twice daily × 3 days every 2 weeks, in combination with sLV5FU2) was 600 mg.
